Tests used:
recombinant mPBR = molecular target: T1, recombinant mPBR (Mus musculus, UniProt P50637); assay: 3H-PK 11195 radioligand binding to recombinant PBR (wild-type and mutated) expressed in IPTG-induced E. coli; details: 3H-PK 11195 binding to IPTG-induced bacteria expressing mouse PBR, Scatchard analysis
T1 construct: made in house; host or cells: Escherichia coli BL21(DE3), IPTG-induced
From the text: Construction of the mouse PBR expression vector (pET15bPBR) and Expression of Recombinant PBR in bacteria- The pET system (Novagen, Madison, WI) was used to express the MA-10 mouse PBR (mPBR) recombinant protein. […] This mPBR fragment was inserted into pET15b vector and linearized with NdeI and XhoI downstream of the T71ac promoter. Recombinant mPBR expression vector was used to transform the BL21(DE3) Escherichia coli strain (Novagen) where the expression of recombinant mPBR protein was induced by 1mM isopropyl-1-thiol-β-D-galactopyranoside (IPTG). PBR protein expression was monitored by SDS-PAGE followed by Coomassie Blue staining or immunoblot analysis using anti-PBR antiserum (Amri et al. 1996, supra). Binding specificity of the IPTG-induced PBR in E. coli was determined in binding studies where specific binding of ^3H-PK 11195 (1.0 nM) was measured in the presence of the indicated concentrations of the indicated ligands.
Radioligand binding assays- ^3H-1-(2-chlorophenyl)-N-methyl-N-(1-methyl-propyl)-3-isoquinolinecarboxamide (PK 11195) binding studies were performed as we previously described (Papadopoulos, V. et al. 1990, J. Biol. Chem. 265: 3772-3779; Garnier, M. et al. 1994, Mol. Pharm. 45:201-211). […]

PBR = molecular target: T2, PBR (Mus musculus, UniProt P50637); assay: Ligand-induced release of 3H-cholesterol from membranes of IPTG-induced transformed bacteria; type: biochemical; details: cholesterol-loaded bacterial membranes (Fig. 3F)
T2 construct: made in house; host or cells: Escherichia coli BL21(DE3), IPTG-induced
Method: ^3H-Cholesterol uptake by E. coli cells was examined using the indicated concentrations of control or IPTG-treated transformed bacteria incubated in the presence of 6.7 nM ^3H-cholesterol (50.0 Ci/mmol) for 60 min at 37°C. Specific cholesterol uptake is defined as IPTG-induced minus basal values.

isolated mitochondria = details: cited from earlier work

Molecule | Bmax (recombinant mPBR) | 3H-cholesterol released from cholesterol-loaded bacterial membranes (PBR) | intramitochondrial cholesterol transport and pregnenolone formation (mitochondrial steroidogenesis) (isolated mitochondria)
CCC(C)N(C)C(=O)c1cc2ccccc2c(-c2ccccc2Cl)n1 (stereo not drawn) [PK 11195, 1-(2-chlorophenyl)-N-methyl-N-(1-methyl-propyl)-3-isoquinolinecarboxamide] | 0.23 pmol/mg protein | cholesterol was liberated from the membranes | 
TTN: naturally occurring processing product of DBI, the triakontatetrapeptide TTN (DBI17-50) (KTKPSDEEMLFIYGHYKQATVGDINTERPGMLDF; Triakontatetraneuropeptide; UniProt P07108 17-50, looked up, fragment) |  |  | able to mimic the effect of DBI

— EP1717249A1, “Peptides containing a cholesterol recognition sequence and their uses” (GEORGETOWN UNIVERSITY, priority 1998, dated 1999)
